Test results taken from patent US20230346777A1, “USE OF SGC ACTIVATORS FOR THE TREATMENT OF OPHTHALMOLOGIC DISEASES” (Bayer Aktiengesellschaft, priority 2020, published 2023).
Counter-ions that a name gives are not always drawn. Like-named read-outs stand apart in the source and are kept apart here.

Tests used:
[1] = target: T1, recombinant guanylate cyclase reporter cell line (Rattus norvegicus, UniProt P20595); assay: Effect on a recombinant guanylate cyclase reporter cell line; type: cell-based
T1 construct: expressed in transfected cells; CHO by own knowledge of the cited Wunder et al. 2005
T1 sequence (P20595 1-619): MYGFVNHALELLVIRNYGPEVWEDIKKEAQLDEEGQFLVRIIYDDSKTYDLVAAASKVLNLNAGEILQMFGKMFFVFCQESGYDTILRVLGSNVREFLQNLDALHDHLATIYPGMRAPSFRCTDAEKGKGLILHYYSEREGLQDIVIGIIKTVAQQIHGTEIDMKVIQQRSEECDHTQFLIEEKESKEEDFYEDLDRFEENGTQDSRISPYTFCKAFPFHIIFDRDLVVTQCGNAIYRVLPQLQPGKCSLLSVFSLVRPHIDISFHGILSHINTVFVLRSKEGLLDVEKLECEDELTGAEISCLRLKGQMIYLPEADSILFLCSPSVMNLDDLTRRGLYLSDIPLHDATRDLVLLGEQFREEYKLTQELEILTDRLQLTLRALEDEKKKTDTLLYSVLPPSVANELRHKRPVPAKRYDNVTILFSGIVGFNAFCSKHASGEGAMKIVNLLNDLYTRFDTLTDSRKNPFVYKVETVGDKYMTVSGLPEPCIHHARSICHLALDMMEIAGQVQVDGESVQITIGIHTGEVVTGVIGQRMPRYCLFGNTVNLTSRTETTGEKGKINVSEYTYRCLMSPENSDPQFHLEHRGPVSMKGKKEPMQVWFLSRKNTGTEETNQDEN
T1 sequence (P19686 1-690 partner): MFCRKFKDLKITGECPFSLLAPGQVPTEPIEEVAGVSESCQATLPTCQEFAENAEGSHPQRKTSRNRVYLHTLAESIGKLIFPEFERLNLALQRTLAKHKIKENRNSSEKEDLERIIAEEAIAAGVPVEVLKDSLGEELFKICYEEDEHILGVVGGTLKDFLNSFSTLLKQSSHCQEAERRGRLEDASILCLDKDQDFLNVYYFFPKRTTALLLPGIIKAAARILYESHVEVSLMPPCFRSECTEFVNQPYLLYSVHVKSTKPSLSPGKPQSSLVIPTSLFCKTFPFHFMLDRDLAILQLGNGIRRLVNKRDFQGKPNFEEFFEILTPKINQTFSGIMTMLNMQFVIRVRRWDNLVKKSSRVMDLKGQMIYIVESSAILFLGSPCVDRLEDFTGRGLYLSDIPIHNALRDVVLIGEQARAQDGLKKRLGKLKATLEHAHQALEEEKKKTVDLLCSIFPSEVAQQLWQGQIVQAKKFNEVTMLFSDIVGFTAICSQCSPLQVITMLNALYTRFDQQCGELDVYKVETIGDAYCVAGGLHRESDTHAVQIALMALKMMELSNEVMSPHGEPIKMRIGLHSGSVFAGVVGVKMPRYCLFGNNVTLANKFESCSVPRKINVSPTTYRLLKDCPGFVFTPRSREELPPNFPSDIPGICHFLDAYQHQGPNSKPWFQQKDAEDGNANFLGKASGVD
Experimental: B-1. Effect on a Recombinant Guanylate Cyclase Reporter Cell Line
The cellular activity of the compounds according to the invention was determined using a recombinant guanylate cyclase reporter cell line, as described in F. Wunder et al., Anal. Biochem. 339, 104-112 (2005).

[2] = Pharmacokinetic parameters following intravenous and oral administration in rats; type: in vivo, male Wistar rats; settings: for clearance / MRT / half-life: male, Wistar, rat, plasma; for clearance: read-out: CLplasma (converted); for MRT: read-out: MRT; for half-life: read-out: t½ (converted)
Experimental: (§1) B-2. Determination of Pharmacokinetic Parameters Following Intravenous and Oral Administration
(§2) The pharmacokinetic parameters of the compounds according to the invention were determined in male Wistar rats and/or in female beagles and/or in cynomolgus monkeys and/or in male CD-1 mice. Intravenous administration in the case of mice and rats was carried out by means of a species-specific plasma/DMSO formulation, and in the case of dogs and monkeys by means of a water/PEG400/ethanol formulation. In all species, oral administration of the dissolved substance was performed via gavage, based on a water/PEG400/ethanol formulation.
(§3) An internal standard (which may also be a chemically unrelated substance) was added to the samples of the compounds of the invention, calibration samples and qualifiers, and there followed protein precipitation by means of acetonitrile in excess. Addition of a buffer solution matched to the LC conditions, and subsequent vortexing, was followed by centrifugation at 1000 g. The supernatant was analysed by LC-MS/MS using C18 reversed-phase columns and variable mobile phase mixtures. The substances were quantified via the peak heights or areas from extracted ion chromatograms of specific selected ion monitoring experiments.
(§4) The plasma concentration/time plots determined were used to calculate the pharmacokinetic parameters such as AUC, Cmax, t1/2 (terminal half-life), F (bioavailability), MRT (mean residence time) and CL (clearance), by means of a validated pharmacokinetic calculation program.
(§5) Since the substance quantification was performed in plasma, it was necessary to determine the blood/plasma distribution of the substance in order to be able to adjust the pharmacokinetic parameters correspondingly.
(§6) For this purpose, a defined amount of substance was incubated in K3 EDTA whole blood of the species in question in a rocking roller mixer for 20 min. After centrifugation at 1000 g, the plasma concentration was measured (by means of LC-MS/MS; see above) and determined by calculating the ratio of the Cblood/Cplasma value.

[3] = Pharmacokinetic parameters following intravenous and oral administration in dogs; type: in vivo, female beagles; settings: for MRT / clearance / half-life: female, beagle, dog, plasma; for clearance: read-out: CLplasma (converted); for half-life: read-out: t½ (converted)
Experimental: as §1, §2, §3, §4, §5, §6

[4] = intravenous administration (i.v.)

Row | MEC (minimum effective concentration) ([1]; hydrochloride) [nM] | SMILES | EC50 [1] [nM] | MEC (minimum effective concentration) [1] [nM] | AUCnorm ([2]; intravenous administration) [kg·h/L] | clearance ([2]; iv, intravenous administration) [mL/min/kg] | MRT ([2]; iv, intravenous administration) [h] | half-life ([2]; iv, intravenous administration) [h] | MRT ([2]; po, oral administration (p.o.)) [h] | half-life ([2]; po, oral administration (p.o.)) [h] | AUCnorm ([2]; oral administration (p.o.)) [kg·h/L] | F ([2]; oral administration (p.o.)) [%] | MRT [3, 4] [h] | clearance [3, 4] [mL/min/kg] | half-life [3, 4] [h] | MRT ([3]; oral administration (p.o.)) [h] | half-life ([3]; oral administration (p.o.)) [h] | AUCnorm [3, 4] [kg·h/L] | AUCnorm ([3]; oral administration (p.o.)) [kg·h/L] | F ([3]; oral administration (p.o.)) [%]
1 | – | CC(C)CN1CCN(c2ccc(-c3ccc(Cl)cc3N3CCC[C@@H](n4ncc(C(=O)O)c4C(F)F)C3)cc2)CC1 (single isomer, unassigned) [Example 2, 1-[1-{4-Chloro-4′-[4-(2-methylpropyl)piperazin-1-yl][1,1′-biphenyl]-2-yl}piperidin-3-yl]-5-(difluoromethyl)-1H-pyrazole-4-carboxylic acid] | 8.6 | 1.0 | 7.08 | 2.33 | 3.44 | 3.13 | 6.23 | 3.96 | 3.77 | 53.3 | 25.6 | 0.167 | 17.7 | 21.3 | 14 | 81.7 | 67.7 | 82.8
2 | 2.2 | CC(C)CN1CCN(c2ccc(-c3ccc(Cl)cc3N3CCCC(n4ncc(C(=O)O)c4C(F)(F)F)C3)cc2)CC1 (single isomer, unassigned) [Example 9, 1-[1-{4-chloro-4′-[4-(2-methylpropyl)piperazin-1-yl][1,1′-biphenyl]-2-yl}piperidin-3-yl]-5-(trifluoromethyl)-1H-pyrazole-4-carboxylic acid hydrochloride] | 11 | – | 5.48 | 3 | 5.83 | 4.1 | 8.51 | 4.96 | 4.50 | 82.1 | 10.3 | 0.5 | 7.86 | 13.7 | 9.28 | 37.4 | 31.7 | 84.8
